Data reported in patent publication US8492589B2, “Alkynyl phenyl derivative compounds for treating ophthalmic diseases and disorders” (Acucela Inc., priority 2007, dated 2013).

test system: retinoid nuclear receptors (RAR and RXR); assay: Retinoid nuclear receptor activity, RAR and RXR together; format: cell-based; settings: reference agonists

Row | activation of the RXRα, RARα, RARβ and RARγ receptors | SMILES
1 | activated | C/C(=C\c1ccc(C(=O)O)cc1)c1ccc2c(c1)C(C)(C)CCC2(C)C [TTNPB, E-4-[2-(5,6,7,8-tetrahydro-5,5,8,8-tetramethyl-2-naphthylenyl)-1-propenyl]benzoic acid]
2 | activated | CC1=C(/C=C/C(C)=C/C=C/C(C)=C/C(=O)O)C(C)(C)CCC1 [at-RA, all-trans-retinoic acid]

target: T1, visual cycle isomerase (Bovine RPE microsome membranes) (Bos taurus, UniProt Q28175); assay: In vitro isomerase inhibition assay, bovine RPE microsome membranes; format: biochemical; settings: bovine RPE microsomes; 11-cis retinol formation
T1 construct: Bovine Retinal Pigment Epithelium (RPE) microsome membranes were the source of a visual cycle isomerase; from tissue; host or cells: bovine retinal pigment epithelium microsome membranes
T1 sequence (Q28175 2-533 limits assumed): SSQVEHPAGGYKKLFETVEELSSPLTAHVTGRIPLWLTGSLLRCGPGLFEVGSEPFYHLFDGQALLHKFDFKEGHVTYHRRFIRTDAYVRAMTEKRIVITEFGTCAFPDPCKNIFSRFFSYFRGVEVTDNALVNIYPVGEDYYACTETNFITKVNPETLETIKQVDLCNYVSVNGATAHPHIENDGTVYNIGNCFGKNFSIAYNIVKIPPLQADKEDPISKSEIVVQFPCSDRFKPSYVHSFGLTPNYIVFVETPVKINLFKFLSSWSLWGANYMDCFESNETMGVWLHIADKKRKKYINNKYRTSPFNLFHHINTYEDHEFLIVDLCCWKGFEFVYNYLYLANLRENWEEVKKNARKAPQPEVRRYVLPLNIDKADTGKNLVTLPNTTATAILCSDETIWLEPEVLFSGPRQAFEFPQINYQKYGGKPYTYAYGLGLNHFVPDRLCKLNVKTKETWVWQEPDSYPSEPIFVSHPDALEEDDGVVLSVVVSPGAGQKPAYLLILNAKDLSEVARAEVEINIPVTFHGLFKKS
Method: The capability of alkynyl phenyl-linked amine derivative compounds to inhibit the activity of a visual cycle isomerase was determined.
Bovine Retinal Pigment Epithelium (RPE) microsome membranes were the source of a visual cycle isomerase.
Crude RPE microsome extracts were thawed in a 37° C. water bath, and then immediately placed on ice. 50 ml crude RPE microsomes were placed into a 50 ml Teflon-glass homogenizer (Fisher Scientific, catalog no. 0841416M) on ice, powered by a hand-held DeWalt drill, and homogenized ten times up and down on ice under maximum speed. This process was repeated until the crude RPE microsome solution was homogenized. The homogenate was then subjected to centrifugation (50.2 Ti rotor (Beckman, Fullerton, Calif.), 13,000 RPM; 15360 Rcf) for 15 minutes at 4° C. The supernatant was collected and subjected to centrifugation at 42,000 RPM (160,000 Rcf; 50.2 Ti rotor) for 1 hour at 4° C. The supernatant was removed, and the pellets were suspended in 12 ml (final volume) cold 10 mM MOPS buffer, pH 7.0. The resuspended RPE membranes in 5 ml aliquots were homogenized in a glass-to-glass homogenizer (Fisher Scientific, catalog no. K885500-0021) to high homogeneity. Protein concentration was quantified using the BCA protein assay according to the manufacturer's protocol (Pierce, Rockford, Ill.). The homogenized RPE preparations were stored at −80° C.
Recombinant human apo cellular retinaldehyde-binding protein (CRALBP) was cloned and expressed according to standard methods in the molecular biology art (see Crabb et al., Protein Science 7:746-57 (1998); Crabb et al., J. Biol. Chem. 263:18688-92 (1988)). Briefly, total RNA was prepared from confluent ARPE19 cells (American Type Culture Collection, Manassas, Va.), cDNA was synthesized using an oligo(dT)12-18 primer, and then DNA encoding CRALBP was amplified by two sequential polymerase chain reactions (see Crabb et al., J. Biol. Chem. 263:18688-92 (1988); Intres, et al., J. Biol. Chem. 269:25411-18 (1994); GenBank Accession No. L34219.1). The PCR product was sub-cloned into pTrcHis2-TOPO TA vector according to the manufacturer's protocol (Invitrogen Inc., Carlsbad, Calif.; catalog no. K4400-01), and then the sequence was confirmed according to standard nucleotide sequencing techniques. Recombinant 6×His-tagged human CRALBP was expressed in One Shot TOP 10 chemically competent E. coli cells (Invitrogen), and the recombinant polypeptide was isolated from E. coli cell lysates by nickel affinity chromatography using nickel (Ni) Sepharose XK16-20 columns for HPLC (Amersham Bioscience, Pittsburgh, Pa.; catalog no. 17-5268-02). The purified 6×His-tagged human CRALBP was dialyzed against 10 mM bis-tris-Propane (BTP) and analyzed by SDS-PAGE. The molecular weight of the recombinant human CRALBP was approximately 39 kDal.
Alkkynyl phenyl-linked amine derivative compounds and control compounds were reconstituted in ethanol to 0.1 M. Ten-fold serial dilutions (10^−2, 10^−3, 10^−4, 10^−5, 10^−6 M) in ethanol of each compound were prepared for analysis in the isomerase assay.
The isomerase assay was performed in 10 mM bis-tris-propane (BTP) buffer, pH 7.5, 0.5% BSA (diluted in BTP buffer), 1 mM sodium pyrophosphate, 20 μM all-trans retinol (in ethanol), and 6 μM apo-CRALBP. The test compounds (2 μl) (final […] dilution of serial dilution stocks) were added to the above reaction mixture to which RPE microsomes were added. The same volume of ethanol was added to the control reaction (absence of test compound). Bovine RPE microsomes (9 μl) (see above) were then added, and the mixtures transferred to 37° C. to initiate the reaction (total volume=150 μl). The reactions were stopped after 30 minutes by adding methanol (300 μl). Heptane was added (300 μl) and mixed into the reaction mixture by pipetting. Retinoid was extracted by agitating the reaction mixtures, followed by centrifugation in a microcentrifuge. […]

Row | IC50 [µM] | SMILES
3 | ≤ 1 | NCCOc1cccc(C#CCc2ccccc2)c1 [Example 75, 2-(3-(3-phenylprop-1-ynyl)phenoxy)ethanamine]
4 | ≤ 100 | NCCOc1cccc(C#CCCO)c1 [Example 76, 4-(3-(2-Aminoethoxy)phenyl)but-3-yn-1-ol]
5 | ≤ 1 | CCCCCC#Cc1cccc(OCCN)c1 [Example 77, 2-(3-(hept-1-ynyl)phenoxy)ethanamine]
6 | ≤ 100 | NCCCc1cccc(C#Cc2cccc3ccccc23)c1 [Example 82, 3-(3-(Naphthalen-1-ylethynyl)phenyl)propan-1-amine]
7 | ≤ 10 | Cc1ccccc1C#Cc1cccc(CCCN)c1 [Example 83, 3-(3-(o-Tolylethynyl)phenyl)propan-1-amine]
8 | ≤ 100 | Cc1ccc(C#Cc2cccc(CCCN)c2)cc1 [Example 84, 3-(3-(p-Tolylethynyl)phenyl)propan-1-amine]
9 | ≤ 1 | NCCOc1cccc(C#CCC2CCCC2)c1 [Example 85, 2-(3-(3-Cyclopentylprop-1-ynyl)phenoxy)ethanamine]
10 | ≤ 1 | NCCOc1cccc(C#CCCc2ccccc2)c1 [Example 86, 2-(3-(4-Phenylbut-1-ynyl)phenoxy)ethanamine]
11 | ≤ 100 | Cc1cccc(C#Cc2cccc(CCCN)c2)c1 [Example 87, 3-(3-(m-Tolylethynyl)phenyl)propan-1-amine]
12 | ≤ 10 | N#Cc1cccc(C#Cc2cccc(OCCN)c2)c1 [Example 88, 3-((3-(2-Aminoethoxy)phenyl)ethynyl)benzonitrile]
13 | ≤ 10 | NCCCc1cccc(C#Cc2ccccc2O)c1 [Example 89, 2-((3-(3-Aminopropyl)phenyl)ethynyl)phenol]
14 | ≤ 10 | N#Cc1cccc(C#Cc2cccc(CCCN)c2)c1 [Example 90, 3-((3-(3-Aminopropyl)phenyl)ethynyl)benzonitrile]
15 | ≤ 1 | COc1ccccc1C#Cc1cccc(OCCN)c1 [Example 91, 2-(3-((2-Methoxyphenyl)Ethynyl)Phenoxy)Ethanamine]
16 | ≤ 100 | NCCCc1cccc(C#Cc2cccc(C(F)(F)F)c2)c1 [Example 92, 3-(3-((3-(Trifluoromethyl)Phenyl)Ethynyl)Phenyl)Propan-1-Amine]
17 | ≤ 1000 | CC(C)(C)c1cc(C#Cc2cccc(CCCN)c2)cc(C(C)(C)C)c1 [Example 93, 3-(3-((3,5-Di-tert-butylphenyl)ethynyl)phenyl)propan-1-amine]
18 | ≤ 100 | CSc1ccc(C#Cc2cccc(CCCN)c2)cc1 [Example 94, 3-(3-((4-(Methylthio)phenyl)ethynyl)phenyl)propan-1-amine]
19 | ≤ 1 | NCCOc1cccc(C#Cc2cccs2)c1 [Example 95, 2-(3-(Thiophen-2-ylethynyl)phenoxy)ethanamine]
20 | ≤ 10 | NCCOc1cccc(C#Cc2ccsc2)c1 [Example 96, 2-(3-(Thiophen-3-ylethynyl)phenoxy)ethanamine]
21 | ≤ 10 | NCCOc1cccc(C#Cc2ccncc2)c1 [Example 97, 2-(3-(Pyridin-4-ylethynyl)phenoxy)ethanamine]
22 | ≤ 10 | NCCOc1cccc(C#Cc2ccccn2)c1 [Example 98, 2-(3-(Pyridin-2-ylethynyl)phenoxy)ethanamine]
23 | ≤ 1 | CCCCCC#Cc1cccc(CCCN)c1 [Example 102, 3-(3-(Hept-1-ynyl)phenyl)propan-1-amine]
24 | ≤ 1 | CCCC(O)(C#Cc1cccc(CCN)c1)CCC [Example 141, 4-((3-(2-Aminoethyl)phenyl)ethynyl)heptan-4-ol]
